These are literature values, as cited in patent publication US11672759B2 (priority 2017, dated 2023).

Each structure is given as a SMILES string.

For the data set the following is noted: estimated.

Consider `COc1cc2c(c(OC)c1OC)-c1ccc(OC)c(=O)cc1[C@@H](NC(C)=O)CC2` [colchicine, N-((7S)-5,6,7,9-tetrahydro-1,2,3,10-tetramethoxy-9-oxobenzo(a)heptalen-7-yl)-acetamide], for which the effective dose result is “approximately 0.015 mg/kg”, the toxic dose result is on record as “greater than 0.1 mg/kg” and the typically lethal dose is “approximately 0.8 mg/kg”.
